Assay results reported in patent EP1698638A1, “Lipopeptides having pharmaceutical activity” (Technische Universität Berlin, priority 2005, dated 2006).

Legend:
Aspergillus fumigatus [1] = test: serial dilution test, minimum inhibitory concentration (MIC); type: cell-based; settings: RPMI-1640 medium, 35 °C, 48 h
Description: (§1) The antifungal activity of the compounds according to the present invention, in particular hassallidin A and hassallidin B, was verified for Aspergillus fumigatus and Candida albicans by minimum inhibitory concentration (MIC) data in a serial dilution test. For each fungus six testing wells of a microtiter plate were prepared with 240 µL medium (Sigma RPMI-1640), 10 µL inoculum suspension and 50 µL fungicide solution (50% MeOH) of different concentrations. Inoculum preparation was carried out by guideline of NCCLS.^25 The fungicide solution preparation took place in a series of twofold dilutions from a stock solution of 92 µg/mL starting with 4.6 µg/50 µL down to 0.14 µg/50 µL. One well was prepared without antifungal agent for unhindered growth as control. The microtiter plates were incubated for Candida albicans and Aspergillus fumigatus at 35 °C for 24 h and 48 h, respectively. Tests were run in triplicates. Inhibition of growth was assessed by comparing the fungal growth of the test samples with the control well by determination of optical density at 595 nm in a microplate reader. The concentration of the well at highest dilution that was still free from growth was assigned the minimum inhibitory concentration (MIC in µg/mL). […] No activities were observed by using Bacillus subtilis, Streptomyces versicolor or Escherchia coli in disk diffusion assays on LB-agar plates with 10 µg hassallidin A in 30 µL 50% MeOH per disk.

Candida albicans [2] = test: as above; type: cell-based; settings: RPMI-1640 medium, 35 °C, 24 h
Description: as §1

Aspergillus fumigatus [3] = test: disk diffusion assay on malt agar plates; type: cell-based; settings: 10 µg in 30 µL 50% MeOH per disk
Aspergillus niger = test: disk diffusion assay on malt agar plates; type: cell-based; settings: 10 µg in 30 µL 50% MeOH per disk
Ustilago maydis = test: disk diffusion assay on malt agar plates; type: cell-based; settings: 10 µg in 30 µL 50% MeOH per disk
Penicillium sp. = test: disk diffusion assay on malt agar plates; type: cell-based; settings: 10 µg in 30 µL 50% MeOH per disk
Candida albicans [4] = test: disk diffusion assay on malt agar plates; type: cell-based; settings: 10 µg in 30 µL 50% MeOH per disk
ATCC 6258 (QC) = test: microdilution assay (NCCLS), inhibitory concentration (IC); type: cell-based, Candida krusei
Description: (§2) More specifically, a determination of inhibitory concentration (IC) of hassallidin A and hassallidin B for various fungi, Candida species and Candida strains were performed with different media (RPMI-1640 or SAB or AM3) in a microdilution assay by following the guidelines in NCCLS documents M^38-P^25 and M27-A2^26 carried out as follows Each substance was dissolved with 100% dimethyl sulfoxide (Serva, Heidelberg, Germany) to give a stock solution of 3.2 mg/ml followed by nine log2 dilution steps with the solvent. This served as a 100-fold concentrated dilution series ranging from 1.6 mg/ml to 0.003 mg/ml of the test substance. The final concentration of the test substance was 16 µg/ml to 0.031 µg/ml.
(§3) Therefore the 100-fold concentrated dilution series (with 100% DMSO) was diluted to the final concentration by two dilution steps: • (1) Each concentration of the 100-fold concentrated substance was diluted with test medium for 1:50 (for ex.: adding of 13 µl of the test substance to 637 µl test medium). • (2) 100 µl of each 1:50 diluted concentration was filled in a row of wells of a microtitre plate. One well was without the substance but with the 1:50 diluted solvent serving as growth control.
(§4) A further 1:2 dilution of the antifungal was made by the inoculation of each well with 100 µl of the test organism, which was suspended in the test medium. The remaining well of the row was used for sterility control of the medium. The inoculum was strictly prepared according the NCCLS^25 guidelines, resulting in […] for Candida-species and Cryptococcus neoformans. For hyphomycetes CFU's were tenfold higher (see NCCLS). ^26 The growth of the hyphomycetes respectively the inhibition was measured by visual reading with the help of a reading mirror; scoring was done according to NCCLS :^26 score 0 corresponds to a optical clear well or an IC95 or higher, score 1 corresponds to an inhibition of 80 percent (IC80) and the score 2 of the NCCLS definition corresponds to the IC50 values in the tables. The growth of the yeasts was measured spectrophotometrically by a microplate reader (MR 5000, Dynatech laboratories) at 630 nm displaying the optical density (OD). The percent inhibition IC50, IC80 or IC95 (corresponding the scores of 2, 1 and 0) was calculated by the following formula: (100−[(ODof the well−ODof the medium)] × 100)/((ODof the growth control−ODof the medium).) [formula] Table 3. Test series for determining IC values of hassallidin A and B in different media using Candida albicans and Candida krusei. The IC values were measured after 24 h and 48 h at 30 °C.

Candida albicans SC 5314 = test: as above; type: cell-based
Description: as §2, §3, §4

[5] = Table 3 series, RPMI, 30 °C, 24h
[6] = Table 3 series, RPMI, 30 °C, 48h
[7] = Table 4 series, RPMI-1640 medium, 30°C/24h
[8] = Table 4 series, RPMI-1640 medium, 30°C/48h
[9] = Table 4 series, RPMI-1640 medium, 35°C/24h
[10] = Table 4 series, RPMI-1640 medium, 35°C/48h
[11] = Table 3 series, AM3, 30 °C, 24h
[12] = Table 3 series, AM3, 30 °C, 48h
[13] = Table 3 series, SAB, 30 °C, 24h
[14] = Table 3 series, SAB, 30 °C, 48h

## hassallidin A
Aspergillus fumigatus [1]
  MIC: 4.8 µg/mL
Candida albicans [2]
  MIC: 4.8 µg/mL
Aspergillus fumigatus [3]
  antifungal activity in disk diffusion assay: precise antifungal activity
Aspergillus niger
  antifungal activity in disk diffusion assay: precise antifungal activity
Ustilago maydis
  antifungal activity in disk diffusion assay: precise antifungal activity
Penicillium sp.
  antifungal activity in disk diffusion assay: precise antifungal activity
Candida albicans [4]
  antifungal activity in disk diffusion assay: precise antifungal activity
ATCC 6258 (QC); [5]
  IC50: 16 µg/mL
  IC80: 16 µg/mL
  IC95: 16 µg/mL
ATCC 6258 (QC); [6]
  IC50: 16 µg/mL
  IC80: 16 µg/mL
  IC95: 16 µg/mL
ATCC 6258 (QC); [7]
  IC50: 8 µg/mL
  IC80: 8 µg/mL
  IC95: 8 µg/mL
ATCC 6258 (QC); [8]
  IC50: 8 µg/mL
  IC80: 8 µg/mL
  IC95: 8 µg/mL
ATCC 6258 (QC); [9]
  IC50: 8 µg/mL
ATCC 6258 (QC); [10]
  IC50: 16 µg/mL
  IC95: 16 µg/mL
Candida albicans SC 5314; [11]
  IC50: 4 µg/mL
  IC80: 4 µg/mL
  IC95: 4 µg/mL
Candida albicans SC 5314; [12]
  IC50: 8 µg/mL
  IC80: 8 µg/mL
  IC95: 8 µg/mL
Candida albicans SC 5314; [5]
  IC50: 16 µg/mL
  IC80: 16 µg/mL
  IC95: 16 µg/mL
Candida albicans SC 5314; [6]
  IC50: 16 µg/mL
  IC80: 16 µg/mL
  IC95: 16 µg/mL
Candida albicans SC 5314; [13]
  IC50: 4 µg/mL
  IC80: 4 µg/mL
  IC95: 4 µg/mL
Candida albicans SC 5314; [14]
  IC50: 8 µg/mL
  IC80: 8 µg/mL
  IC95: 8 µg/mL
Candida albicans SC 5314; [9]
  IC50: 8 µg/mL
  IC80: 8 µg/mL
  IC95: 8 µg/mL
Candida albicans SC 5314; [10]
  IC50: 8 µg/mL
  IC80: 8 µg/mL
  IC95: 8 µg/mL

## hassallidin B
Aspergillus fumigatus [1]
  MIC: 4.8 µg/mL
Candida albicans [2]
  MIC: 4.8 µg/mL
Aspergillus fumigatus [3]
  antifungal activity in disk diffusion assay: precise antifungal activity
Aspergillus niger
  antifungal activity in disk diffusion assay: precise antifungal activity
Ustilago maydis
  antifungal activity in disk diffusion assay: precise antifungal activity
Penicillium sp.
  antifungal activity in disk diffusion assay: precise antifungal activity
Candida albicans [4]
  antifungal activity in disk diffusion assay: precise antifungal activity
ATCC 6258 (QC); [5]
  IC50: 16 µg/mL
  IC80: 16 µg/mL
  IC95: 16 µg/mL
ATCC 6258 (QC); [6]
  IC50: 16 µg/mL
  IC80: 16 µg/mL
  IC95: 16 µg/mL
Candida albicans SC 5314; [11]
  IC50: 4 µg/mL
  IC80: 4 µg/mL
  IC95: 4 µg/mL
Candida albicans SC 5314; [12]
  IC50: 8 µg/mL
  IC80: 8 µg/mL
  IC95: 8 µg/mL
Candida albicans SC 5314; [5]
  IC50: 16 µg/mL
  IC80: 16 µg/mL
  IC95: 16 µg/mL
Candida albicans SC 5314; [6]
  IC50: 16 µg/mL
  IC80: 16 µg/mL
  IC95: 16 µg/mL
Candida albicans SC 5314; [13]
  IC50: 8 µg/mL
  IC80: 8 µg/mL
  IC95: 8 µg/mL
Candida albicans SC 5314; [14]
  IC50: 8 µg/mL
  IC80: 8 µg/mL
  IC95: 8 µg/mL
